Where “and” joins values, the source holds several entries; their conditions need not be identical. Equal entries are not always repeated.
Key:
[1] = tested on: 4T1 mouse breast cancer cells; experiment: Cytotoxicity, colorimetric microculture assay (MTS assay); format: cell-based; conditions: 96 h exposure
Experimental: (§1) Cytotoxicity of all synthesized compounds was evaluated on two human derived cancer cell lines namely HeLa (cervical carcinoma) and SW480 (colon carcinoma). 4T1 mouse breast cancer cells were also used for evaluation. Cells were first treated with different concentrations of the test compounds and incubated for 96 h at 37° C. Subsequently, the cell viability was measured by means of a colorimetric microculture assay (MTS assay).
(§2) Human cervical carcinoma cell line HeLa, human colon carcinoma cell line SW480 and mouse breast cancer cell line 4T1 were purchased from the American Type Culture Collection (Manassas, Va., USA). The cell lines were cultured in DME medium (Biopolis shared facilities, A*STAR, SG) supplemented with 10% heat inactivated fetal bovine serum and 1% of mixture of penicillin and streptomycin (Invitrogen, CA, U.S.A). The cells were maintained in a 75 mL cell culture flask (Nunc) at 37° C. in a humidified incubator with 95% air and 5% CO2.
Cytotoxicity was determined by means of a colorimetric microculture assay (MTs assay, MTS=[…]) For this purpose, HeLa, SW480, and 4T1 cells were harvested from culture flasks by trypsinization and seeded into 96-well microculture plates in cell densities of 3.5×10^3 cells/well. […] After incubation, the absorbance was measured at a wavelength of 499 nm using a microplate reader. […]

[2] = tested on: HeLa (cervical carcinoma) cells; experiment: as above; format: cell-based, human; conditions: 96 h exposure
Experimental: as §1, §2
(§3) Cytotoxicity was determined by means of a colorimetric microculture assay (MTs assay, MTS=[…]) For this purpose, HeLa, SW480, and 4T1 cells were harvested from culture flasks by trypsinization and seeded into 96-well microculture plates in cell densities of 3.5×10^3 cells/well. The cells were allowed to attach for 8 h. Subsequently, cells were exposed to serial dilutions of the test compounds in 150 μL/well complete culture medium for 96 h. Then 25 uL of CellTiter 96® Aqueous one solution reagent was added to the cells, followed by incubation for 2 h at 37° C. After incubation, the absorbance was measured at a wavelength of 499 nm using a microplate reader. The quantity of vital cells was expressed in terms of T/C values in comparison to untreated control microcultures, and 50% inhibitory concentrations (IC50) were calculated from concentration-effect curves by a nonlinear curve fit using Origin Lab 7.5.

[3] = tested on: SW480 (colon carcinoma) cells; experiment: as above; format: cell-based, human; conditions: 96 h exposure
Experimental: as §1, §2, §3

SW480 cells = experiment: Cell cycle analysis (propidium iodide, flow cytometry); format: cell-based, human; conditions: 10 μM, 96 h
Experimental: (§4) To further characterize the in vitro efficacy of 3-6, cell cycle analysis and measurement of caspase activity was conducted after incubation with the drug candidates. […] Oxaliplatin coordinates to DNA nucleotides, preventing the cell from crossing the DNA damage check point. […] This is very close to the oxaliplatin control were about 55% of the cells were in a G2/M arrest. […] The fact that all compounds were associated with an increase in the G2/M phase proves that compound 3-6 is able to bind to DNA in the tested cells, although the effect is not as pronounced as in the oxaliplatin control.
(§5) Cells (3×10^6 cells) were seeded into 10 cm petridishes and allowed to recover for 24 h. The medium was exchanged to serum free DME medium and the cells were allowed to synchronize for 24 h. The medium was later changed to DME medium containing 10% heat inactivated fetal bovine serum and 1% of mixture of penicillin and streptomycin (Invitrogen, CA, U.S.A). Cells were exposed to 10 μM of the test compounds for 96 h. Control and treated cells were collected, washed with PBS, fixed in 70% ice-cold ethanol, and stored at −20° C. To determine cell cycle distributions, cells were transferred to a PBS solution, incubated with 10 μg/mL RNase A for 30 min at 37° C., and treated with 5 μg/mL propidium iodide for 30 min. Fluorescence of individual cells was measured by flow cytometry, […]

[4] = tested on: 4T1 breast cancer tumor in BALB/c mice; experiment: In vivo therapeutic efficacy, intratumoral injection, tumor volume; parameters: species or system mouse; conditions: for Tumor volume, Significant? vs. PBS, Day 14: Holm-Sidak, overall significance level 0.05, comparator PBS group
Description: (§6) Female BALB/c mice were divided into four groups for treatment (PBS group and Ac-LIVAGK-NH2 (SEQ ID NO. 16 acylated and amidated) hydrogel group as negative controls, oxaliplatin as positive control and test compound 3 as a hybrid hydrogel with Ac-LIVAGK-NH2 (SEQ ID NO. 16 acylated and amidated)). Each group comprised of 9 mice. Tumour growth was initiated via a subcutaneous injection of 1 million 4T1 cells into the mouse flank. Seven days after cell injection, compound 3 was directly injected into the tumor using Ac-LIVAGK-NH2 (SEQ ID NO. 16 acylated and amidated), its parent peptide, as gel matrix. The same volume was accordingly injected into the other three groups. As a first dose 15 mg/kg oxaliplatin was used, which is equivalent to 44 mg/kg of compound 3. A re-injection was performed on day 21 of the experiment. The animals were sacrificed on day 28 and final tumor size was measured.
(§7) Adult female Balb/c mice used in this study (weight 20 g; aged 6-8 weeks) were provided by Biological Resource Center (BRC), A*Star, Biopolis, Singapore. For tumor establishment, 1×10^6 mouse 4T1 breast cancer cells were injected subcutaneously into the flank of Balb/c mice (designated as day 0). To investigate the effect of the mixture of Oxaliplatin and hydrogel, the tumor-inoculated animals were divided into 4 groups (n=9 per group) on day 7 post-tumor inoculation and received an intratumor injection of sample solutions: phosphate buffered saline (PBS), Ac-LIVAGK-NH2 (SEQ ID NO. 16 acylated and amidated) (12.5 mg/mL) oxaliplatin (15 mg/kg), 3 (44 mg/kg) and Ac-LIVAGK-NH2 (SEQ ID NO. 16 acylated and amidated) (12.5 mg/mL). 100 μL of each sample were injected directly into the tumor. The hydrogels were prepared prior to injection by dissolving the peptide in 1×PBS and vortexing for 1 min. The sample containing 3 was prepared in a similar manner; 3 was dissolved in 1×PBS and the resulting solution was added to the peptide and vortexed for 1 min. A solid hydrogel was observed about 10 min after sample preparation, to allow in situ gelation inside the tumor.
Tumor volume was determined by measurement with an electronic digital vernier caliper. Readings were taken once a week until day 28 post-tumor inoculation. The ellipsoid volume of the tumor (mm^3) was then calculated using the formula: Volume=(Width)×(Length)×(height)×π/6.
(§8) Data are represented as mean±SE. […] A P-value of <0.05 was considered to be statistically significant.

[5] = In vivo study, body weight comparison of treatment groups; parameters: species or system mouse
Description: as §6
The same holds true for day 21 of the experiment. […] This was confirmed by a significant weight difference between the oxaliplatin group and the group treated with compound 3. Therefore, reinjection on day 21 involved only half the initial dose.
as §7, §8

4T1 cells = experiment: Cell cycle analysis (propidium iodide, flow cytometry); format: cell-based, mouse; conditions: 10 μM, 96 h
Experimental: as §4, §5

[6] = Gelation ability in water (vortexing, left to stand overnight); format: physicochemical
Experimental: To test the gelation ability of compounds 3-8, they were dissolved in water by vortexing and left to stand overnight. […] In contrast, the alkyne-derived peptide P1 gelled in water at a concentration of 30 mg/mL, which is close to the minimal gelation concentration of its parent peptide SEQ ID NO 16 Ac-LIVAGK-NH2 (Ac-LK6-NH2). […] We assume, that the derivatization of the peptides with cisplatin or oxaliplatin and a bulky triazole group interferes with their self-assembly by changing the lipophilicity of the N-terminus of the peptide. However, stable hybrid gels could be formed with up to 40 wt % loading when the parent peptide was used as a matrix.

[7] = Holm-Sidak pairwise comparison, comparator Ac-LK6-NH2 hydrogel group
[8] = Holm-Sidak pairwise comparison, comparator PBS group
[9] = Holm-Sidak, 0.05, comparator Ac-LK6-NH2 hydrogel group
[10] = Holm-Sidak, 0.05, comparator PBS group
[11] = comparator Ac-LK6-NH2 hydrogel group

N.N.[Cl][Pt][Cl] [cisplatin]
IC50 [1]: 1500 ± 600 nM
IC50 [2]: 620 nM and 1000 nM
IC50 [3]: 4000 ± 2500 nM

O=C1[O][Pt]2([NH][C@@H]3CCCC[C@H]3[NH]2)[O]C1=O [oxaliplatin]
apoptotic cells (SW480 cells): no apoptotic cells
cells arrested in G2/M (SW480 cells): about 80%
Tumor volume, Diff of Means vs. Ac-LK6-NH2, Day 14 [4, 7]: 101.218 mm^3
Tumor volume, Diff of Means vs. Ac-LK6-NH2, Day 28 [4, 7]: 1150.053 mm^3
Tumor volume, Diff of Means vs. LK6, Day 21 ([4]; Holm-Sidak pairwise comparison, comparator LK6 hydrogel group): 487.488 mm^3
Tumor volume, Diff of Means vs. PBS, Day 14 [4, 8]: 253.590 mm^3
Tumor volume, Diff of Means vs. PBS, Day 21 [4, 8]: 580.470 mm^3
Tumor volume, Diff of Means vs. PBS, Day 28 [4, 8]: 855.616 mm^3
Tumor volume, Significant? vs. Ac-LK6-NH2, Day 14 [4, 9]: No
Tumor volume, Significant? vs. Ac-LK6-NH2, Day 28 [4, 9]: Yes
Tumor volume, Significant? vs. LK6, Day 21 ([4]; Holm-Sidak, 0.05, comparator LK6 hydrogel group): Yes
Tumor volume, Significant? vs. PBS, Day 21 [4, 10]: Yes
Tumor volume, Significant? vs. PBS, Day 28 [4, 10]: Yes
Tumor volume, Significant? vs. PBS, Day 14 [4]: Significant tumor reduction
Tumor volume, Significant? vs. PBS, Day 14 ([4]; listed as Oxaliplatin): Yes
Tumor volume, Mean, Day 7 ([4]; day 7 post-tumor inoculation = day of first intratumoral injection (baseline), n=9): 61.938 mm^3
Tumor volume, Mean, Day 14 ([4]; day 14, intratumoral injection day 7: oxaliplatin 15 mg/kg or 3 44 mg/kg in Ac-LIVAGK-NH2 gel, n=9): 135.101 mm^3
Tumor volume, Mean, Day 21 ([4]; day 21, intratumoral injection day 7: oxaliplatin 15 mg/kg or 3 44 mg/kg in Ac-LIVAGK-NH2 gel, n=9): 96.493 mm^3
Tumor volume, Mean, Day 28 ([4]; day 28, injection day 7, re-injection day 21 with half the initial dose, n=9): 250.650 mm^3
Weight, Significant? vs. Ac-LK6-NH2, Day 20 [5, 9]: Yes
Weight, Significant? vs. Ac-LK6-NH2, Day 28 [5, 9]: Yes
Weight, Significant? vs. PBS, Day 20 [5, 10]: Yes
Weight, Significant? vs. PBS, Day 28 [5, 10]: Yes
Weight, Mean, Day 20 ([5]; body weight of BALB/c mice, day 20, injection day 7, n=9): 19.754
Weight, Mean, Day 28 ([5]; body weight of BALB/c mice, day 28, re-injection day 21 with half dose, n=9): 20.593
Weight, Diff of Means vs. Ac-LK6-NH2, Day 20 [5, 11]: 2.831
Weight, Diff of Means vs. Ac-LK6-NH2, Day 28 [5, 11]: 1.982
Weight, Diff of Means vs. PBS, Day 20 ([5]; comparator PBS group): 2.813
Weight, Diff of Means vs. PBS, Day 28 ([5]; comparator PBS group): 1.742
effect on the mice at the administered dose, compared to conjugate 3 ([5]; oxaliplatin 15 mg/kg intratumoral, confirmed by significant weight difference): significant deleterious effect
IC50 [1]: 1800 ± 500 nM
IC50 [2]: 2000 ± 800 nM
IC50 [3]: 500 nM and 470 nM
apoptotic cells (4T1 cells): about 30%
cells arrested in G2/M (4T1 cells): about 55%

P1: alkyne-derived (propiolic acid functionalized) peptide; parent peptide Ac-LIVAGK-NH2 (also: propiolic acid alkyne functionalization, site not given here) [Compound P1]
concentration at which the peptide gelled in water [6]: 30000 µg/mL
